Reference: PubChem BioAssay (NCI)
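Where inhibition never reached the appropriate level, the endpoint shown equals the highest concentration tested. Otherwise, values were interpolated linearly from a five-concentration, 48-hour dose response in 96-well plates. Abbreviation: GI50, concentration required for 50% inhibition of growth. The concentration for full growth arrest is given as TGI.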

Assays:
Assay in all cases: NCI-60 cell line screen, 48 h
[1] = tested on: NCI-H460 lung
[2] = tested on: SR leukemia
[3] = tested on: CCRF-CEM leukemia
[4] = tested on: COLO 205 colon
[5] = tested on: A549 NSCLC
[6] = tested on: 786-0 renal
[7] = tested on: PC-3 prostate
[8] = tested on: BT-549 breast
[9] = tested on: EKVX NSCLC
[10] = tested on: LOX IMVI melanoma
[11] = tested on: SF-539 CNS
[12] = tested on: NCI-H23 lung
[13] = tested on: HOP-92 NSCLC
[14] = tested on: SK-MEL-28 melanoma
[15] = tested on: SNB-75 CNS
[16] = tested on: IGROV1 ovarian
[17] = tested on: RPMI-8226 leukemia
[18] = tested on: U251 CNS
[19] = tested on: MALME-3M melanoma
[20] = tested on: SNB-19 CNS
[21] = tested on: HCC-2998 colon
[22] = tested on: T-47D breast
[23] = tested on: SK-OV-3 ovarian
[24] = tested on: HL-60(TB) leukemia
[25] = tested on: OVCAR-8 ovarian
[26] = tested on: K-562 leukemia
[27] = tested on: TK-10 renal
[28] = tested on: ACHN renal
[29] = tested on: HOP-62 NSCLC
[30] = tested on: MDA-MB-468 breast
[31] = tested on: HT29 colon
[32] = tested on: NCI-H522 lung
[33] = tested on: NCI-H226 lung
[34] = tested on: HCT-15 colon
[35] = tested on: SW-620 colon
[36] = tested on: CAKI-1 renal
[37] = tested on: RXF 393 renal
[38] = tested on: OVCAR-3 ovarian
[39] = tested on: SF-268 CNS
[40] = tested on: NCI/ADR-RES ovarian
[41] = tested on: MCF7 breast
[42] = tested on: MOLT-4 leukemia
[43] = tested on: SF-295 CNS
[44] = tested on: UACC-62 melanoma
[45] = tested on: DU-145 prostate
[46] = tested on: UO-31 renal
[47] = tested on: M14 melanoma
[48] = tested on: OVCAR-5 ovarian
[49] = tested on: UACC-257 melanoma
[50] = tested on: MDA-MB-435
[51] = tested on: OVCAR-4 ovarian
[52] = tested on: HS 578T breast
[53] = tested on: HCT-116 colon
[54] = tested on: KM12 colon
[55] = tested on: SK-MEL-2 melanoma
[56] = tested on: SK-MEL-5 melanoma
[57] = tested on: SN12C renal
[58] = tested on: A498 renal
[59] = tested on: MDA-MB-231 breast

CN(C)CCNC(=O)OCCCCOc1cc(O)c2c(=O)cc(-c3ccccc3)oc2c1
GI50 [1]: 3.01 µM | TGI [1]: 10.1 µM | GI50 [2]: 1.95 µM | TGI [2]: 4.16 µM | GI50 [3]: 3.21 µM | TGI [3]: 10.7 µM | GI50 [4]: 1.84 µM | TGI [4]: 3.5 µM | GI50 [5]: 5.26 µM | TGI [5]: 19.3 µM | GI50 [6]: 2 µM | TGI [6]: 4.72 µM | GI50 [7]: 4.35 µM | TGI [7]: 17.9 µM | GI50 [8]: 10.6 µM | TGI [8]: 22.7 µM | GI50 [9]: 7.87 µM | TGI [9]: 20.2 µM | GI50 [10]: 1.79 µM | TGI [10]: 3.25 µM | GI50 [11]: 1.53 µM | TGI [11]: 2.93 µM | GI50 [12]: 7.23 µM | TGI [12]: 20.4 µM | GI50 [13]: 4.35 µM | TGI [13]: 19.1 µM | GI50 [14]: 1.62 µM | TGI [14]: 3.1 µM | GI50 [15]: 11 µM | TGI [15]: 24 µM | GI50 [16]: 15.7 µM | TGI [16]: 29.6 µM | GI50 [17]: 2.97 µM | TGI [17]: 9.69 µM | GI50 [18]: 2.31 µM | TGI [18]: 6.74 µM | GI50 [19]: 1.57 µM | TGI [19]: 2.97 µM | GI50 [20]: 6.09 µM | TGI [20]: 20.3 µM | GI50 [21]: 3.25 µM | TGI [21]: 10.3 µM | GI50 [22]: 1.88 µM | TGI [22]: 4.23 µM | GI50 [23]: 11.3 µM | TGI [23]: 23.7 µM | GI50 [24]: 1.64 µM | TGI [24]: 3.59 µM | GI50 [25]: 10 µM | TGI [25]: 24.5 µM | GI50 [26]: 1.96 µM | TGI [26]: 5.98 µM | GI50 [27]: 18.5 µM | TGI [27]: 33.2 µM | GI50 [28]: 1.92 µM | TGI [28]: 3.97 µM | GI50 [29]: 10.4 µM | TGI [29]: 24.4 µM | GI50 [30]: 1.78 µM | TGI [30]: 4.16 µM | GI50 [31]: 1.88 µM | TGI [31]: 3.98 µM | GI50 [32]: 3.68 µM | TGI [32]: 16 µM | GI50 [33]: 10.1 µM | TGI [33]: 28.8 µM | GI50 [34]: 2.25 µM | TGI [34]: 5.8 µM | GI50 [35]: 2.03 µM | TGI [35]: 4.49 µM | GI50 [36]: 3.04 µM | TGI [36]: 12.2 µM | GI50 [37]: 1.64 µM | TGI [37]: 3.35 µM | GI50 [38]: 4.42 µM | TGI [38]: 16.3 µM | GI50 [39]: 3.51 µM | TGI [39]: 16.2 µM | GI50 [40]: 7.37 µM | TGI [40]: 34.2 µM | GI50 [41]: 1.59 µM | TGI [41]: 3.76 µM | GI50 [42]: 2.25 µM | TGI [42]: 6.24 µM | GI50 [43]: 2.14 µM | TGI [43]: 4.06 µM | GI50 [44]: 1.78 µM | TGI [44]: 3.43 µM | GI50 [45]: 3.73 µM | TGI [45]: 13.9 µM | GI50 [46]: 4.56 µM | TGI [46]: 16.9 µM | GI50 [47]: 1.89 µM | TGI [47]: 3.78 µM | GI50 [48]: 11.8 µM | TGI [48]: 24.2 µM | GI50 [49]: 1.89 µM | TGI [49]: 3.61 µM | GI50 [50]: 2.12 µM | TGI [50]: 4.66 µM | GI50 [51]: 10.1 µM | TGI [51]: 24.7 µM | GI50 [52]: 4.35 µM | TGI [52]: 23.4 µM | GI50 [53]: 2.01 µM | TGI [53]: 4.85 µM | GI50 [54]: 6.09 µM | TGI [54]: 20.4 µM | GI50 [55]: 2.88 µM | TGI [55]: 9.08 µM | GI50 [56]: 1.65 µM | TGI [56]: 3.03 µM | GI50 [57]: 13.8 µM | TGI [57]: 27.4 µM | GI50 [58]: 2.21 µM | TGI [58]: 5.77 µM | GI50 [59]: 1.74 µM | TGI [59]: 3.78 µM

CCOP(=O)(CC(F)(F)C(F)(F)F)OCC
GI50 [1]: 17 µM | TGI [1]: 37.5 µM | GI50 [2]: 2.4 µM | TGI [2]: 11.5 µM | GI50 [3]: 2.9 µM | TGI [3]: 15.8 µM | GI50 [4]: 1.84 µM | TGI [4]: 3.43 µM | GI50 [5]: 30.7 µM | TGI [5]: > 100 µM | GI50 [6]: 4.2 µM | TGI [6]: 16.8 µM | GI50 [7]: 4.6 µM | TGI [7]: 25.6 µM | GI50 [8]: 4.17 µM | TGI [8]: 20.5 µM | GI50 [9]: 3.17 µM | TGI [9]: 12.6 µM | GI50 [10]: 1.78 µM | TGI [10]: 3.91 µM | GI50 [11]: 2.02 µM | TGI [11]: 4.75 µM | GI50 [12]: 7.93 µM | TGI [12]: 23.9 µM | GI50 [13]: 3.37 µM | TGI [13]: 10.7 µM | GI50 [14]: 1.82 µM | TGI [14]: 3.85 µM | GI50 [15]: 1.95 µM | TGI [15]: 36.7 µM | GI50 [16]: 18.5 µM | TGI [16]: 38.8 µM | GI50 [17]: 3.44 µM | TGI [17]: 13.1 µM | GI50 [18]: 20.7 µM | TGI [18]: 60.2 µM | GI50 [19]: 1.83 µM | TGI [19]: 3.62 µM | GI50 [20]: 26.2 µM | TGI [20]: > 100 µM | GI50 [21]: 12.2 µM | TGI [21]: 25.2 µM | GI50 [22]: 2.19 µM | TGI [22]: 7.23 µM | GI50 [23]: 27.4 µM | TGI [23]: 74.8 µM | GI50 [24]: 1.71 µM | TGI [24]: 5.89 µM | GI50 [25]: 3.79 µM | TGI [25]: 55.3 µM | GI50 [26]: 2.62 µM | TGI [26]: 17.9 µM | GI50 [27]: 3.11 µM | TGI [27]: 7.27 µM | GI50 [28]: 1.86 µM | TGI [28]: 3.55 µM | GI50 [29]: 22.2 µM | TGI [29]: 54.4 µM | GI50 [30]: 1.24 µM | TGI [30]: 2.99 µM | GI50 [31]: 2.25 µM | TGI [31]: 4.96 µM | GI50 [32]: 0.505 µM | TGI [32]: 1.86 µM | GI50 [33]: 16.5 µM | TGI [33]: 58.2 µM | GI50 [34]: 1.56 µM | TGI [34]: 3.73 µM | GI50 [35]: 1.83 µM | TGI [35]: 3.92 µM | GI50 [36]: 3.06 µM | TGI [36]: 10.6 µM | GI50 [37]: 1.06 µM | TGI [37]: 2.37 µM | GI50 [38]: 2.76 µM | TGI [38]: 7.98 µM | GI50 [39]: 17.9 µM | TGI [39]: 54.4 µM | GI50 [40]: 2.31 µM | TGI [40]: 5.95 µM | GI50 [41]: 2.45 µM | TGI [41]: 12.1 µM | GI50 [42]: 1.92 µM | TGI [42]: 10.3 µM | GI50 [43]: 15.6 µM | TGI [43]: 33.2 µM | GI50 [44]: 2.35 µM | TGI [44]: 8.87 µM | GI50 [45]: 5.56 µM | TGI [45]: 18.4 µM | GI50 [46]: 2.82 µM | TGI [46]: 10.9 µM | GI50 [47]: 2.02 µM | TGI [47]: 5.31 µM | GI50 [48]: 17.6 µM | TGI [48]: 32.5 µM | GI50 [49]: 2.57 µM | TGI [49]: 11.1 µM | GI50 [50]: 3.31 µM | TGI [50]: 14.5 µM | GI50 [51]: 8.98 µM | TGI [51]: 23.9 µM | GI50 [52]: 5.55 µM | TGI [52]: 94 µM | GI50 [53]: 1.86 µM | TGI [53]: 4.86 µM | GI50 [54]: 17.2 µM | TGI [54]: 33.6 µM | GI50 [55]: 17.3 µM | TGI [55]: 39.2 µM | GI50 [56]: 3.38 µM | TGI [56]: 13.7 µM | GI50 [57]: 16.6 µM | TGI [57]: 42.2 µM | GI50 [58]: 19.7 µM | TGI [58]: 37 µM | GI50 [59]: 3.43 µM | TGI [59]: 12.3 µM
